Literature values, collected in patent publication US20130251697A1, “NOVEL NASAL SPRAY” (priority 2009, published 2013).

System: SIRT1
Settings: life extending genes

Oc1ccc(C=Cc2cc(O)cc(O)c2)cc1 [Resveratrol]
increases genes SIRT1 expression: up to 13 fold
